Earlier results, collected in patent publication US6475978B1, “Method of making water-softening and detergent compositions” (Unilever Home & Personal Care USA a division of Conopco, …, priority 1999, dated 2002).
Where two headings read alike, the source gives them in different places.

Details: at 20° C.
[1] = materials with solubility of less than 50 g per 100 g water

Compound | Water Solubility [1] [g/100 g] | Water Solubility (materials with solubility of at least 50 g per 100 g water) [g/100 g]
O=P(O)(O)OP(=O)(O)OP(=O)(O)O [Sodium tripolyphosphate anhydrous] | 15 | –
O=BO[O-].[Na+] [Sodium perborate anhydrous] | 3.7 | –
NC(N)=O [Urea] | – | >100
